In general, EC50 refers to the concentration at which the effect is half-maximal. High values mean a need for much substance, low ones an effect from little substance. As usually defined, the inhibition is the drop in the measured response relative to a control, in per cent.

“Also recorded” adds a separate entry of the source.

The target of assay [1] is T1, RhlR (Pseudomonas aeruginosa, UniProt P54292).
T1 construct: expressed in transfected cells; host or cells: E. coli JLD271 (ΔsdiA) with pJN105R2 (arabinose-induced) and pSC11-rhlI*
T1 sequence (P54292 whole entry): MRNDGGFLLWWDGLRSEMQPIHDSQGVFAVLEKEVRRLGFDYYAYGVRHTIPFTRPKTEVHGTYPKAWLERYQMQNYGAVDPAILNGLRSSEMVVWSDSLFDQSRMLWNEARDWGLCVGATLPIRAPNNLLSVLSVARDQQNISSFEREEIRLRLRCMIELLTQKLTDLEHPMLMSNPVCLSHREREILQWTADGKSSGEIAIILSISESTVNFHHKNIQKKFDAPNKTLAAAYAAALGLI
In words: P. aeruginosa RhlR reporter agonism assay (PAO-JP2/prhlI-LVAgfp). It counts as cell-based. Particulars: P. aeruginosa reporter compared with E. coli reporter. Here is the method: All media and reagents for bacterial culture were purchased from commercial sources. Bacteria were cultured in Luria-Bertani broth (LB) at 37° C. with shaking at 200 rpm unless otherwise noted. The bacterial reporter strains used for this study were (i) the heterologous E. coli strain JLD271 (ΔsdiA) harboring the RhlR expression plasmid pJN105R2 and the rhlI-lacZ transcriptional fusion reporter pSC11-rhlI*, (ii) the heterologous E. coli strain JLD271 (ΔsdiA) harboring the LasR expression plasmid pJN105L and the […] transcriptional fusion reporter pSC11, and (iii) the P. aeruginosa strain PAO-JP2 (ΔlasrhlI) harboring the rhlI-gfp transcriptional fusion reporter prhlI-LVAgfp. Reporter strains JLD271/pJN105R2/pSC11-rhlI* and JLD271/pJN105L/pSC11 were grown in LB containing 100 μg/mL ampicillin and 10 μg/mL gentamicin. Freezer stocks of bacterial strains were maintained at −80° C. in 1:1 LB:50% glycerol.
To evaluate the RhlR-modulatory activities of selected compounds in P. aeruginosa, the ΔlasIrhlI strain PAO-JP2 harboring plasmid prhlI-LVAgfp was used as previously reported.^38 Briefly, a subculture was prepared by diluting an overnight culture 1:100 in fresh LB and was grown to OD600=0.3. […] Subculture was treated with 100 nM OdDHL (to induce native expression of RhlR) by adding the appropriate amount of OdDHL stock solution in DMSO. The subculture was then dispensed ([…] aliquots) into each synthetic compound-containing well of the microtiter plate.
Plates were incubated at 37° C. for 6 h, and GFP production was monitored by using a Synergy 2 plate reader (λex=500 nm, λem=540 nm; BioTek, Winooski, Vt.) and quantified with Gen5 1.05 software (BioTek). The final OD600 for each well was measured to normalize GFP production to cell density. All synthetic compounds were tested in triplicate, and three separate trials were performed with unique cultures. Agonism dose-response analyses were performed by testing compounds over a range of concentrations with the RhlR reporter.
Library compounds J18 and J24, as well as controls BHL and S4, were evaluated for potency in the native genetic background of RhlR by using the P. aeruginosa strain PAO-JP2 (ΔlasIrhlI) harboring the RhlR reporter plasmid prhlI-LVAgfp (Table 3). Because the production of RhlR is dependent on LasR (in LB medium), all assays were performed in the presence of 100 nM OdDHL, enabling immediate transcription of RhlR via LasR activation. […] All compounds also retained similar potencies when screened in the P. aeruginosa background.

The target in assay [2] is T1, RhlR. Described as above. To be noted: for Emax: read-out: Maximum Activation (%). The class given is cell-based.
The target of assay [3] is T1, RhlR. In words: E. coli RhlR reporter antagonism assay vs 10 μM BHL (JLD271/pJN105R2/pSC11-rhlI*). The class given is cell-based, P. aeruginosa. To be noted: for inhibition at 10 µM: read-out: % inhibition (10 μM), compound at 10 μM in the presence of 10 μM BHL; for inhibition at 10 µM / inhibition at 1000 µM: negative = agonism stronger than 10 μM BHL alone; for inhibition at 1000 µM: read-out: % inhibition (1 mM), compound at 1 mM in the presence of 10 μM BHL.

With `O=C(N[C@H]1CCCC1=O)C1CCC1` [RN12], the “RhlR agonist potency in words” value at RhlR [1] is “maintained activity between the two different reporters”. At RhlR [2], the EC50 is 7.35 µM and the Emax came out at 96%. On RhlR [3], the inhibition at 10 µM is -39% and the inhibition at 1000 µM was -98%.
As for `O=C(COc1ccc(I)cc1)N[C@H]1CCSC1=O` [RN22], on RhlR [3] (E. coli reporter vs 10 μM BHL), the “RhlR antagonist activity in words” value is reported as “potent antagonist activity; also recorded: activity comparable to previously identified compound E22”. Further, the “Maximum Inhibition (%)” value on RhlR [3] (E. coli reporter, relative to activation of 10 μM BHL alone) is 81%. In addition, the inhibition at 10 µM at RhlR [3] was 28%.
As for `CC(C)CC(=O)N[C@H]1CCCC1=O` [RN36], at RhlR [1], the “RhlR agonist potency in words” value is “not able to retain potency”. Moreover, at RhlR [2], the EC50 was 11.2 µM and the Emax amounted to 96%. Besides, on RhlR [3], the inhibition at 10 µM was -35% and the inhibition at 1000 µM is -122%.
Taken in the same sequence, the figures for `CC(C)CC(=O)N[C@H]1CCSC1=O` [RN37] were “not able to retain potency”, 2.58 µM, 91%, -59% and -81%.

For the origin of these results see patent US11247976B2, “Synthetic ligands that modulate the activity of the RhlR quorum sensing receptor” (Wisconsin Alumni Research Foundation, priority 2016, dated 2022).
